Data published in PubChem BioAssay AID330 (DTP/NCI, 2004).
Where “and” joins values, the source holds several entries; their conditions need not be identical. Equal values may be shown once. Inconclusive results and toxic doses are left out. Peptide text beside a SMILES is read from it. * marks the point of attachment. Cbz = O=C(OCc1ccccc1)*

System: P388 leukemia ip, CD2F1 mice, survival T/C
Assay: NCI In Vivo Anticancer Drug Screen. Data for tumor model P388 Leukemia (intraperitoneal) in CD2F1 (CDF1) mice
Details: endpoint: median survival time, higher = longer survival
How it was run: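 Mice carrying the transplanted tumor received test compound or vehicle. Survival was recorded in each group, and the value is the treated-group measurement divided by that of the vehicle-treated control group.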

[1] = dose: 25.0 mg/kg/injection, schedule: Q01DX009 (ip), vehicle: saline
[2] = dose: 50.0 mg/kg/injection, schedule: Q01DX009 (ip), vehicle: saline
[3] = dose: 100.0 mg/kg/injection, schedule: Q01DX009 (ip), vehicle: saline
[4] = dose: 12.5 mg/kg/injection, schedule: Q01DX005 (ip), vehicle: saline
[5] = dose: 60.0 mg/kg/injection, schedule: Q01DX005 (ip), vehicle: Klucel (hydroxypropylcellulose) (HPC)
[6] = dose: 50.0 mg/kg/injection, schedule: Q01DX005 (ip), vehicle: saline with Tween-80
[7] = dose: 100.0 mg/kg/injection, schedule: Q01DX005 (ip), vehicle: saline with Tween-80
[8] = dose: 50.0 mg/kg/injection, schedule: Q01DX009 (ip), vehicle: Klucel (hydroxypropylcellulose) (HPC)
[9] = dose: 100.0 mg/kg/injection, schedule: Q01DX009 (ip), vehicle: Klucel (hydroxypropylcellulose) (HPC)
[10] = dose: 200.0 mg/kg/injection, schedule: Q01DX009 (ip), vehicle: Klucel (hydroxypropylcellulose) (HPC)
[11] = dose: 60.0 mg/kg/injection, schedule: Q01DX005 (ip), vehicle: saline with Tween-80
[12] = dose: 120.0 mg/kg/injection, schedule: Q01DX005 (ip), vehicle: saline with Tween-80
[13] = dose: 240.0 mg/kg/injection, schedule: Q01DX005 (ip), vehicle: saline with Tween-80
[14] = dose: 50.0 mg/kg/injection, schedule: Q01DX005 (ip), vehicle: Klucel (hydroxypropylcellulose) (HPC)
[15] = dose: 100.0 mg/kg/injection, schedule: Q01DX005 (ip), vehicle: Klucel (hydroxypropylcellulose) (HPC)
[16] = dose: 200.0 mg/kg/injection, schedule: Q01DX005 (ip), vehicle: Klucel (hydroxypropylcellulose) (HPC)

For `CN1CCC2OC2C1=NC#N` (centres undefined), the T/C (dose: 12.5 mg/kg/injection, schedule: Q01DX009 (ip), vehicle: saline) was 102 % of control, the T/C [1] was 101 % of control and the T/C [2] was 105 % of control. The T/C [3] was 101 % of control and the T/C (dose: 200.0 mg/kg/injection, schedule: Q01DX009 (ip), vehicle: saline) was 97 % of control.
With `CCC(CC)NCCCNc1cc(OC)cc2cccnc12` the T/C [4] was 108 % of control and the T/C (dose: 25.0 mg/kg/injection, schedule: Q01DX005 (ip), vehicle: saline) was 104 % of control.
`CCOc1c(N=Nc2ccc(Br)cc2)c(C)nn1C(=S)SC` was tested, and the T/C [5] was 93 % of control, the T/C (dose: 120.0 mg/kg/injection, schedule: Q01DX005 (ip), vehicle: Klucel (hydroxypropylcellulose) (HPC)) was 92 % of control and the T/C (dose: 240.0 mg/kg/injection, schedule: Q01DX005 (ip), vehicle: Klucel (hydroxypropylcellulose) (HPC)) was 98 % of control.
For `COc1ccc(C2(c3ccc(OC)cc3)N=NC3(C)CC32)cc1` (centres undefined), the T/C (dose: 100.0 mg/kg/injection, schedule: Q01DX001 (ip), vehicle: saline with Tween-80) was 92 % of control, the T/C (dose: 200.0 mg/kg/injection, schedule: Q01DX001 (ip), vehicle: saline with Tween-80) was 89 % of control and the T/C (dose: 400.0 mg/kg/injection, schedule: Q01DX001 (ip), vehicle: saline with Tween-80) was 86 % of control.
For `O=C(Cn1ccnc1)Nc1ccc(Cl)cc1C(=O)c1ccccc1`, the T/C [6] was 95 % of control and the T/C [7] was 92 % of control.
For `[Cl][Sn]1([Cl])[CH2]CCCCCC[CH2][Sn]([Cl])([Cl])[CH2]CCCCCC[CH2]1`, the T/C [6] was 92 % of control and the T/C [7] was 92 % of control.
`COc1c(C#N)c2c(c(OC)c1OC)-c1ccc(OC)c(=O)cc1[C@@H](NC(C)=O)CC2` was tested, and the T/C (dose: 3.12 mg/kg/injection, schedule: Q01DX009 (ip), vehicle: Klucel (hydroxypropylcellulose) (HPC)) was 113 % of control.
`O=C(N1CCCCC1Cc1ccccc1)C(Cl)(Cl)Cl` (centres undefined) was tested, and the T/C (dose: 30.0 mg/kg/injection, schedule: Q01DX005 (ip), vehicle: Klucel (hydroxypropylcellulose) (HPC)) was 101 % of control and the T/C [5] was 101 % of control.
In the case of `O=C1C2CC3CC1CC(Cl)(C3)C2`, the T/C [6] is reported as 112 % of control and the T/C [7] is reported as 98 % of control.
`CCCCCCCCCC1(CC(=O)OCC)SCCN1C(N)=O` (centres undefined) was tested, and the T/C [8] was 113 % of control, the T/C [9] was 107 % of control and the T/C [10] was 115 % of control.
`C=CCOc1c(C=O)cccc1OC` was tested, and the T/C (dose: 25.0 mg/kg/injection, schedule: Q01DX005 (ip), vehicle: saline with Tween-80) was 101 % of control, the T/C [6] was 100 % of control and the T/C [7] was 108 % of control.
`CC(=NCC(=O)O)c1ccccc1` was tested, and the T/C [1] was 104 % of control, the T/C [2] was 111 % of control and the T/C [3] was 109 % of control.
`CC(=O)Oc1cc2c(cc1OC(C)=O)C(=O)CCC=C2` was tested, and the T/C (dose: 100.0 mg/kg/injection, schedule: Q04DX003 (ip), vehicle: saline sonified) was 110 % of control, the T/C (dose: 200.0 mg/kg/injection, schedule: Q04DX003 (ip), vehicle: saline sonified) was 100 % of control and the T/C (dose: 400.0 mg/kg/injection, schedule: Q04DX003 (ip), vehicle: saline sonified) was 100 % of control.
`O=C(O)CC(=O)C(=O)O` was tested, and the T/C (dose: 100.0 mg/kg/injection, schedule: Q04DX002 (ip), vehicle: saline with Tween-80) was 98 % of control, the T/C (dose: 100.0 mg/kg/injection, schedule: Q04DX002 (ip), vehicle: saline) was 101 % of control and the T/C (dose: 200.0 mg/kg/injection, schedule: Q04DX002 (ip), vehicle: saline with Tween-80) was 112 % of control. The T/C (dose: 200.0 mg/kg/injection, schedule: Q04DX002 (ip), vehicle: saline) was 97 % of control and the T/C (dose: 400.0 mg/kg/injection, schedule: Q04DX002 (ip), vehicle: saline with Tween-80) was 112 % of control.
`N#CC1(C#N)C2CCCCC21` (centres undefined) was tested, and the T/C (dose: 3.75 mg/kg/injection, schedule: Q01DX005 (ip), vehicle: saline with Tween-80) was 107 % of control, the T/C (dose: 7.5 mg/kg/injection, schedule: Q01DX005 (ip), vehicle: saline with Tween-80) was 100 % of control and the T/C (dose: 15.0 mg/kg/injection, schedule: Q01DX005 (ip), vehicle: saline with Tween-80) was 96 % of control.
With `CNc1ccc(OC)cc1` the T/C (dose: 100.0 mg/kg/injection, schedule: Q04DX003 (ip), vehicle: other) was 100 % of control, the T/C (dose: 200.0 mg/kg/injection, schedule: Q04DX003 (ip), vehicle: other) was 90 % of control and the T/C (dose: 400.0 mg/kg/injection, schedule: Q04DX003 (ip), vehicle: other) was 109 % of control.
In the case of `[N-]=[N+]=Nc1ccnc2cc(F)ccc12`, the T/C [11] is reported as 96 % of control, the T/C [12] is reported as 104 % of control and the T/C [13] is reported as 95 % of control.
With `C1=NCCCN2CCCCC12` (centres undefined) the T/C (dose: 20.0 mg/kg/injection, schedule: Q01DX009 (ip), vehicle: saline) was 98 % of control and the T/C (dose: 40.0 mg/kg/injection, schedule: Q01DX009 (ip), vehicle: saline) was 93 % of control.
With `CCC(C(=O)O)C(=O)O.[NH-]CC[NH-].[Pt+2]` the T/C (dose: 25.0 mg/kg/injection, schedule: Q01DX009 (ip), vehicle: saline with Tween-80) was 190 % of control, the T/C (dose: 33.0 mg/kg/injection, schedule: Q04DX003 (ip), vehicle: saline) was 120 % of control and the T/C [8] was 160 % of control. For the same compound, the T/C (dose: 50.0 mg/kg/injection, schedule: Q01DX009 (ip), vehicle: saline with Tween-80) was 218 % of control, the T/C (dose: 50.0 mg/kg/injection, schedule: Q04DX003 (ip), vehicle: saline with Tween-80) was 181 % of control and the T/C [9] was 205 % of control. For the same compound, the T/C (dose: 100.0 mg/kg/injection, schedule: Q04DX003 (ip), vehicle: saline with Tween-80) was 195 % of control, the T/C [10] was 196 % of control and the T/C (dose: 400.0 mg/kg/injection, schedule: Q04DX003 (ip), vehicle: saline) was 155 % of control.
For `O=c1[nH]cc(N=Cc2cccc3c2OCO3)c(=O)[nH]1`, the T/C (dose: 100.0 mg/kg/injection, schedule: Q01DX001 (ip), vehicle: suspension in saline) was 99 % of control and the T/C (dose: 200.0 mg/kg/injection, schedule: Q01DX001 (ip), vehicle: suspension in saline) was 86 % of control.
With `Cc1ccc(/C=N/n2c(-c3ccccc3Cl)nc3ccccc3c2=O)cc1` the T/C [6] was 96 % of control, the T/C [7] was 93 % of control and the T/C (dose: 200.0 mg/kg/injection, schedule: Q01DX005 (ip), vehicle: saline with Tween-80) was 91 % of control.
`CC1=CC(C)(C)Nc2ccc(OC(=O)/C=C(C)/C=C/C=C(C)/C=C/C3=C(C)CCCC3(C)C)cc21` was tested, and the T/C [11] was 94 % of control, the T/C [12] was 91 % of control and the T/C [13] was 94 % of control.
`Cc1cc(OP2(=O)Nc3cccc4cccc(c34)N2)ccc1Cl` was tested, and the T/C [6] was 89 % of control and the T/C [7] was 89 % of control.
For `O=C(Cc1nc2cc(Cl)c(Cl)cc2nc1CC(=O)c1cccnc1)c1cccnc1`, the T/C [11] was 110 % of control, the T/C [12] was 103 % of control and the T/C [13] was 100 % of control.
For `Cc1nc2ccccc2c2c(N)cccc12`, the T/C (dose: 25.0 mg/kg/injection, schedule: Q01DX005 (ip), vehicle: Klucel (hydroxypropylcellulose) (HPC)) was 105 % of control, the T/C [14] was 102 % of control and the T/C [15] was 98 % of control. The T/C [16] was 105 % of control.
`S=C(N/N=C/c1c[nH]c2ccccc12)NC12CC3CC(CC(C3)C1)C2` was tested, and the T/C [11] was 101 % of control and the T/C [12] was 90 % of control.
With `CC(C)CC(NC(=O)C(Cc1ccccc1)NC(=O)OCCc1ccccn1)C(=O)OC(C)(C)C` (centres undefined) the T/C (dose: 60.0 mg/kg/injection, schedule: Q01DX005 (ip), vehicle: saline) was 101 % of control, the T/C (dose: 120.0 mg/kg/injection, schedule: Q01DX005 (ip), vehicle: saline) was 95 % of control and the T/C (dose: 240.0 mg/kg/injection, schedule: Q01DX005 (ip), vehicle: saline) was 87 % of control.
`COc1cc(NCCC2CCCCN2)c2ncccc2c1` (centres undefined) was tested, and the T/C (dose: 6.25 mg/kg/injection, schedule: Q01DX005 (ip), vehicle: saline) was 100 % of control and the T/C [4] was 100 % of control.
In the case of `CCOC(=O)CCC(NC(=O)C(CCC(=O)OCC)NC(=O)OCc1ccccc1)C(=O)O` (centres undefined) (tested in a mixture with another compound) (Cbz-Glu(OEt)-Glu(OEt)-OH; configuration not given here), the T/C [14] is reported as 100 % of control, the T/C [15] is reported as 100 % of control and the T/C [16] is reported as 100 % of control.
`CCOC(=O)c1ccc(N=NN2CN3CN(C2)CN(N=Nc2ccc(C(=O)OCC)cc2)C3)cc1` was tested, and the T/C (dose: 25.0 mg/kg/injection, schedule: Q04DX002 (ip), vehicle: Klucel (hydroxypropylcellulose) (HPC)) was 99 % of control, the T/C (dose: 50.0 mg/kg/injection, schedule: Q04DX002 (ip), vehicle: Klucel (hydroxypropylcellulose) (HPC)) was 104 % of control and the T/C (dose: 100.0 mg/kg/injection, schedule: Q04DX002 (ip), vehicle: Klucel (hydroxypropylcellulose) (HPC)) was 100 % of control and 87 % of control.
